The target of the experiment is T1, HCV polymerase (NS5B570n-Con1) (Hepatitis C virus genotype 1b, UniProt Q9WMX2).
T1 construct: a 21 amino acid C-terminal deletion of full-length HCV polymerase; made in house; host or cells: E. coli BL21(DE3) pLysS, plasmid pET17b
Nature of the experiment: biochemical. Details: species or system HCV Con1 strain. Here is the method: The enzymatic activity of HCV polymerase (NS5B570n-Con1) was measured as the incorporation of radiolabeled nucleotide monophosphates into acid insoluble RNA products. Unincorporated radiolabeled substrate was removed by filtration and scintillant was added to the washed and dried filter plate containing radiolabeled RNA product. The amount of RNA product generated by NS5B570n-Con1 at the end of the reaction was directly proportional to the amount of light emitted by the scintillant.
The HCV polymerase used in the enzymatic activity assay is a 21 amino acid C-terminal deletion of full-length HCV polymerase derived from HCV Con1 strain, genotype 1b (GenBank accession number AJ242654) (NS5B570n-Con1). The NS5B570n-Con1 was sub-cloned downstream to the T7 promoter of the plasmid expression construct pET17b and transformed into E. coli strain BL21(DE3) pLysS for protein expression. A single colony was used to start an innoculum for a 10 L culture in LB media supplemented with 100 μg/mL ampicillin at 37° C. Protein expression was induced by the addition of 0.25 mM isopropyl-β-D-thiogalactopyranoside (IPTG) when the optical density of the culture at […] was 0.8. Induction of protein expression was carried out at 30° C. for 16 h after which the cells were harvested by centrifugation. NS5B570n-Con1 was purified to homogeneity using a three-column purification protocol including subsequent column chromatography on Ni-NTA, SP-Sepharose HP and Superdex 75 resins.
Enzymatic reactions in the presence of cIRES RNA template (see section [0300]) contained 20 nM cIRES RNA, 20 nM NS5B570n-Con1 enzyme, 0.5 μCi of tritiated UTP (Perkin Elmer catalog no. TRK-412; specific activity: 30 to 60 Ci/mmol), 1 μM each ATP, CTP, and GTP, 40 mM Tris-HCl pH 8.0, 40 mM NaCl, 4 mM DTT (dithiothreitol), 4 mM MgCl2, 5 μl of compound serial diluted in DMSO, and nuclease-free water to a final reaction volume of 50 μl. Enzymatic reactions in the presence of 20 nM cIRES template, 20 nM NS5B570n-Con1 enzyme, 1 μCi of tritiated UTP (Perkin Elmer catalog no. TRK-412; specific activity: 30 to 60 Ci/mmol), 40 mM Tris-HCl pH 8.0, 40 mM NaCl, 4 mM DTT (dithiothreitol), 4 mM MgCl2, 5 μl of compound serial diluted in DMSO, and nuclease-free water to a final reaction volume of 50 μl. Reaction mixtures were assembled in 96-well filter plates (cat #MADVNOB, Millipore Co.) and incubated for 2 h at 30° C. Reactions were stopped by addition of 10% final (v/v) trichloroacetic acid and incubated for 40 min at 4° C. Reactions were filtered, washed with 8 reaction volumes of 10% (v/v) trichloroacetic acetic acid, 4 reaction volumes of 70% (v/v) ethanol, air dried, and 25 μl of scintillant (Microscint 20, Perkin-Elmer) was added to each reaction well.
Two RNA templates can be used to assay compounds described herein. The cIRES RNA template is 377 nucleotide long and consisting of a partial complementary sequence (36 nucleotides) of the core protein, followed by 341 nucleotide of the complementary sequence of the internal ribosome entry site. The poly A RNA template (GE Amersham catalog number 27-4110) was a homopolymeric RNA pre-annealed to a oligo(rU)16 primer at a molar ratio of 3-to-1 (primer-template). The cIRES template was used in the assay unless otherwise noted.
The amount of light emitted from the scintillant was converted to counts per minute (CPM) on a Topcount® plate reader (Perkin-Elmer, Energy Range: Low, Efficiency Mode Normal, Count Time: 1 min, Background Subtract: none, Cross talk reduction: Off).
Data was analyzed in Excel® (Microsoft®) and ActivityBase® (Idbs®). The reaction in the absence of enzyme was used to determine the background signal, which was subtracted from the enzymatic reactions. […] All data was expressed as a percentage of the positive control. The compound concentration at which the enzyme-catalyzed rate of RNA synthesis was reduced by 50% (IC50) was calculated by fitting

In general, IC50 refers to the midpoint of a concentration-inhibition curve. High values mean weaker potency in that assay, low ones greater potency in that assay. On to `CC(C)(C)c1cc(-c2ncc[nH]c2=O)cc2c(C(=O)N3CCOC(CNS(C)(=O)=O)C3)coc12` (centres unmarked) [Compound 100, N-{4-[7-tert-Butyl-5-(3-oxo-3,4-dihydro-pyrazin-2-yl)-benzofuran-3-carbonyl]-morpholin-2-ylmethyl}-methanesulfonamide], for which inhibition was half-maximal at 0.028 µM (IC50).

On to `CC(C)(C)c1cc(-c2ccc[nH]c2=O)cc2c(C(=O)N3CCOC(CNS(C)(=O)=O)C3)csc12` (centres unmarked) [Compound 112, N-{4-[7-tert-Butyl-5-(2-oxo-1,2-dihydro-pyridin-3-yl)-benzo[b]thiophene-3-carbonyl]-morpholin-2-ylmethyl}-methanesulfonamide], for which half-maximal inhibition (IC50) was put at 0.004 µM.

The molecule `CC(C)(C)c1cc(-c2ccc[nH]c2=O)cc2c(C(=O)N3CCCC(F)(CNS(C)(=O)=O)C3)coc12` (centres unmarked) [Compound 124, N-{1-[7-tert-Butyl-5-(2-oxo-1,2-dihydro-pyridin-3-yl)-benzofuran-3-carbonyl]-3-fluoro-piperidin-3-ylmethyl}-methanesulfonamide] gave an IC50 of 0.006 µM.

In turn, `CC(C)(C)c1cc(-c2ccc[nH]c2=O)cc2c(C(=O)N3CCCC(CCS(C)(=O)=O)C3)coc12` (centres unmarked) [Compound 132, 3-{7-tert-Butyl-3-[3-(2-methanesulfonyl-ethyl)-piperidine-1-carbonyl]-benzofuran-5-yl}-1H-pyridin-2-one] yielded an IC50 of 0.029 µM.

Molecule `CCOC(=O)c1coc2c(C(C)(C)C)cc(-c3ccc[nH]c3=O)cc12` [Compound I-3, 7-tert-butyl-5-(2-oxo-1,2-dihydro-pyridin-3-yl)-benzofuran-3-carboxylic acid ethyl ester] yielded an IC50 of 0.258 µM.

Molecule `CC(C)(C)c1cc(-c2ccc[nH]c2=O)cc2c(C(=O)O)coc12` [Compound I-4, 7-tert-butyl-5-(2-oxo-1,2-dihydro-pyridin-3-yl)-benzofuran-3-carboxylic acid] registered a half-maximal inhibitory concentration (IC50) of 0.381 µM.

`CC(C)(C)c1cc(-c2ccc[nH]c2=O)cc2c(C(=O)N3CCOCC3)coc12` [Compound I-7] displayed an IC50 of 0.142 µM.

`CC(C)(C)c1cc(-c2ccc[nH]c2=O)cc2c(CO)coc12` [Compound I-8]: the IC50 amounted to 0.515 µM.

`CC(C)NC(=O)c1coc2c(C(C)(C)C)cc(-c3ccc[nH]c3=O)cc12` [Compound I-9] gave a 50% inhibitory concentration (IC50) of 1.54 µM.

The molecule `CC(C)CNC(=O)c1coc2c(C(C)(C)C)cc(-c3ccc[nH]c3=O)cc12` [Compound I-10] showed a half-maximal inhibitory concentration (IC50) of 0.404 µM.

`CC(C)CN(C)C(=O)c1coc2c(C(C)(C)C)cc(-c3ccc[nH]c3=O)cc12` [Compound I-11] had an IC50 of 0.475 µM.

Turning to `CC(C)(C)c1cc(-c2ccc[nH]c2=O)cc2c(C(=O)N3CCC(O)CC3)coc12` [Compound I-12], it took 0.063 µM to reach half-maximal inhibition (IC50).

In turn, `CC(C)(C)c1cc(-c2ccc[nH]c2=O)cc2c(C(=O)N3CCCCC3)coc12` [Compound I-13] gave an IC50 of 0.048 µM.

On to `CC(C)(C)c1cc(-c2ccc[nH]c2=O)cc2c(C(=O)N3CCCC(CO)C3)coc12` (centres unmarked) [Compound I-14], for which half-maximal inhibition (IC50) required 0.066 µM.

In turn, `CC(C)(C)c1cc(-c2ccc[nH]c2=O)cc2c(C(=O)N3CCOC(CO)C3)coc12` (centres unmarked) [Compound I-15] showed an IC50 of 0.325 µM.

Molecule `CC(C)(C)c1cc(-c2ccc[nH]c2=O)cc2c(C(=O)N3CCC[C@H]3CO)coc12` [Compound I-17] yielded an IC50 of 0.112 µM.

Take `CC(C)(C)c1cc(-c2ccc[nH]c2=O)cc2c(C(=O)NC3(CO)CCCC3)coc12` [Compound I-18]: the IC50 was determined as 4.8 µM.

Regarding `COCCN(CCOC)C(=O)c1coc2c(C(C)(C)C)cc(-c3ccc[nH]c3=O)cc12` [Compound I-19], the IC50 was determined as 4.35 µM.

In the case of `CNC(=O)c1coc2c(C(C)(C)C)cc(-c3ccc[nH]c3=O)cc12` [Compound I-22], the midpoint of inhibition, the IC50, lay at 0.77 µM.

`CC(C)(C)c1cc(-c2ccc[nH]c2=O)cc2c(C(=O)Nc3ccccc3)coc12` [Compound I-23] displayed an IC50 of 0.425 µM.

For the molecule `CCN(CCOC)C(=O)c1coc2c(C(C)(C)C)cc(-c3ccc[nH]c3=O)cc12` [Compound I-25], the half-inhibitory concentration (IC50) stood at 1.33 µM.

With `COC(=O)C1COc2c1cc(-c1ccc[nH]c1=O)cc2C(C)(C)C` (centres unmarked) [Compound I-26, 7-tert-Butyl-5-(2-oxo-1,2-dihydro-pyridin-3-yl)-2,3-dihydro-benzo furan-3-carboxylic acid methyl ester], the IC50 is 0.037 µM.

On to `CC(C)(C)c1cc(-c2ccc[nH]c2=O)cc2c(C(=O)N3CCCC(O)C3)coc12` (centres unmarked) [Compound I-27], for which 0.186 µM corresponded to half-maximal inhibition (IC50).

On to `CC(C)(C)c1cc(-c2ccc[nH]c2=O)cc2c(C(=O)N3CCNCC3)coc12` [Compound I-28], for which the IC50 came out at 1.94 µM.

Consider `COc1cccc(C(=O)c2coc3c(C(C)(C)C)cc(-c4ccc[nH]c4=O)cc23)c1` [Compound I-30, 3-[7-tert-Butyl-3-(3-methoxy-benzoyl)-benzofuran-5-yl]-1H-pyridin-2-one], for which the IC50 turned out to be 0.329 µM.

As for `Cc1ccsc1C(=O)c1coc2c(C(C)(C)C)cc(-c3ccc[nH]c3=O)cc12` [Compound I-31], inhibition was half-maximal at 0.069 µM (IC50).

Consider `CC(C)(C)c1cc(-c2ccc[nH]c2=O)cc2c(-c3cccc(C#N)c3)coc12` [Compound I-32], for which the concentration for half-maximal inhibition (IC50) is 0.038 µM.

The molecule `CC(C)(C)c1cc(-c2ccc[nH]c2=O)cc2c(-c3cccc(O)c3)coc12` [Compound I-34] had an IC50 of 0.024 µM.

In the case of `CC(C)(C)c1cc(-c2ccc[nH]c2=O)cc2c(-c3ccc(C#N)cc3)coc12` [Compound I-35], the IC50 was 0.072 µM.

Regarding `CC(C)(C)OC(=O)N[C@@H]1CCCN(C(=O)c2coc3c(C(C)(C)C)cc(-c4ccc[nH]c4=O)cc23)C1` [Compound I-38], the IC50 was 0.132 µM.

Consider `CC(C)(C)OC(=O)NC1CCN(C(=O)c2coc3c(C(C)(C)C)cc(-c4ccc[nH]c4=O)cc23)CC1` [Compound I-39], for which it took 4.37 µM to reach half-maximal inhibition (IC50).

Take `CC(C)(C)OC(=O)N[C@H]1CCCN(C(=O)c2coc3c(C(C)(C)C)cc(-c4ccc[nH]c4=O)cc23)C1` [Compound I-40]: the IC50 was determined as 1.41 µM.

Regarding `CC(C)(C)OC(=O)NCC1CCN(C(=O)c2coc3c(C(C)(C)C)cc(-c4ccc[nH]c4=O)cc23)C1` (centres unmarked) [Compound I-45], the IC50 came to 0.076 µM.

For the molecule `CC(C)(C)c1cc(-c2ccc[nH]c2=O)cc2c(C(=O)N3CCC[C@H](NS(C)(=O)=O)C3)coc12` [Compound I-47], the IC50 was 0.172 µM.

Consider `CC(C)(C)c1cc(-c2ccc[nH]c2=O)cc2c(C(=O)N3CCCC3)coc12` [Compound I-51], for which the IC50 was 0.012 µM.

In turn, `CC(=O)N1CCN(C(=O)c2coc3c(C(C)(C)C)cc(-c4ccc[nH]c4=O)cc23)CC1` [Compound I-52] yielded an IC50 of 1.25 µM.

On to `CN(C)[C@H]1CCN(C(=O)c2coc3c(C(C)(C)C)cc(-c4ccc[nH]c4=O)cc23)C1` [Compound I-53], for which the IC50 was 0.454 µM.

For the molecule `CC(C)(C)c1cc(-c2ccc[nH]c2=O)cc2c(C(=O)N3CCC(NC(=O)C(F)(F)F)CC3)coc12` [Compound I-55], the IC50 amounted to 2.28 µM.

In turn, `CC(C)(C)c1cc(-c2ccc[nH]c2=O)cc2c(C(=O)N3CCC(C(N)=O)CC3)coc12` [Compound I-58] yielded an IC50 of 0.282 µM.

Turning to `CC(C)(C)c1cc(-c2ccc[nH]c2=O)cc2c(C(=O)N3CCC(NC(=O)C(F)(F)F)C3)coc12` (centres unmarked) [Compound I-60], half-maximal inhibition (IC50) required 0.051 µM.

For `CC(C)(C)c1cc(-c2ccc[nH]c2=O)cc2c(C(=O)N3CCCC(C(N)=O)C3)coc12` (centres unmarked) [Compound I-61], the IC50 was 0.066 µM.
